Source: ChEMBL document CHEMBL1201862, “PubChem BioAssay data set” (2004)
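Method: 48-hour compound exposure of cells in 96-well plates, five concentrations, linear interpolation of endpoints. GI50 = concentration required for 50% inhibition of growth.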 Calls of active or inactive are those of the source. No stated cut-off is given here; in the data, active = GI50 up to about 1.1 µM and inactive = higher.

Legend:
Assay in all cases: NCI anticancer screen, dose series, 48 h
A498 = test system: A498
ACHN = test system: ACHN
EKVX = test system: EKVX
HOP-62 = test system: HOP-62
HOP-92 = test system: HOP-92
K562 = test system: K562
KM12 = test system: KM12
M14 = test system: M14
NCI-H226 = test system: NCI-H226
OVCAR-3 = test system: OVCAR-3
OVCAR-8 = test system: OVCAR-8
SF-539 = test system: SF-539
SK-MEL-28 = test system: SK-MEL-28
SK-MEL-2 = test system: SK-MEL-2
SK-MEL-5 = test system: SK-MEL-5
SK-OV-3 = test system: SK-OV-3
SN12C = test system: SN12C
SNB-75 = test system: SNB-75
SR = test system: SR
TK-10 = test system: TK-10

| Structure (SMILES) | GI50 (A498) | GI50 (ACHN) | GI50 (EKVX) | GI50 (HOP-62) | GI50 (HOP-92) | GI50 (K562) | GI50 (KM12) | GI50 (M14) | GI50 (NCI-H226) | GI50 (OVCAR-3) | GI50 (OVCAR-8) | GI50 (SF-539) | GI50 (SK-MEL-28) | GI50 (SK-MEL-2) | GI50 (SK-MEL-5) | GI50 (SK-OV-3) | GI50 (SN12C) | GI50 (SNB-75) | GI50 (SR) | GI50 (TK-10) |
| --- | --- | --- | --- | --- | --- | --- | --- | --- | --- | --- | --- | --- | --- | --- | --- | --- | --- | --- | --- | --- |
| N=C(N)NC(=N)Nc1ccc(S(=O)(=O)O)cc1 | > 100 µM (inactive) | > 100 µM (inactive) | > 100 µM (inactive) | > 100 µM (inactive) | 77.8 µM (inactive) | > 100 µM (inactive) | > 100 µM (inactive) | > 100 µM (inactive) | > 100 µM (inactive) | > 100 µM (inactive) | > 100 µM (inactive) | > 100 µM (inactive) | > 100 µM (inactive) | > 100 µM (inactive) | > 100 µM (inactive) | > 100 µM (inactive) | > 100 µM (inactive) | > 100 µM (inactive) | > 100 µM (inactive) | > 100 µM (inactive) |
| O=C1C(Br)=C(c2ccccc2)C(c2ccccc2)=C1c1ccccc1 | 16.1 µM (inactive) | 2.55 µM (inactive) | 8.75 µM (inactive) | 14.2 µM (inactive) | 1.69 µM (inactive) | 1.61 µM (inactive) | 5.94 µM (inactive) | 2.15 µM (inactive) | 8.43 µM (inactive) | 2.61 µM (inactive) | 2.04 µM (inactive) | 3.01 µM (inactive) | 2.61 µM (inactive) | 4.41 µM (inactive) | 2.94 µM (inactive) | 15.9 µM (inactive) | 1.95 µM (inactive) | 3.63 µM (inactive) | 0.979 µM (active) | 3.42 µM (inactive) |
| CC(C)OCN1COCN/C1=N/C#N | > 100 µM (inactive) | > 100 µM (inactive) | > 100 µM (inactive) | > 100 µM (inactive) | > 100 µM (inactive) | > 100 µM (inactive) | > 100 µM (inactive) | > 100 µM (inactive) | > 100 µM (inactive) | > 100 µM (inactive) | > 100 µM (inactive) | > 100 µM (inactive) | > 100 µM (inactive) | > 100 µM (inactive) | > 100 µM (inactive) | > 100 µM (inactive) | > 100 µM (inactive) | > 100 µM (inactive) | > 100 µM (inactive) | > 100 µM (inactive) |
| CCCCOCN/C(N)=N/C#N | > 100 µM (inactive) | > 100 µM (inactive) | > 100 µM (inactive) | > 100 µM (inactive) | > 100 µM (inactive) | 73.6 µM (inactive) | 71.4 µM (inactive) | > 100 µM (inactive) | > 100 µM (inactive) | > 100 µM (inactive) | > 100 µM (inactive) | > 100 µM (inactive) | > 100 µM (inactive) | > 100 µM (inactive) | > 100 µM (inactive) | > 100 µM (inactive) | > 100 µM (inactive) | > 100 µM (inactive) | 19.6 µM (inactive) | > 100 µM (inactive) |
| CCOC(=O)c1sc2[n+](c1C)C(=O)/C(=C/c1ccccc1Cl)S2 | 6.92 µM (inactive) | 1.53 µM (inactive) | 3.21 µM (inactive) | 1.61 µM (inactive) | 5.9 µM (inactive) | 0.505 µM (active) | 0.425 µM (active) | 2.2 µM (inactive) | 0.953 µM (active) | 0.891 µM (active) | 1.01 µM (active) | 0.472 µM (active) | 9.75 µM (inactive) | 9.35 µM (inactive) | 0.421 µM (active) | 1.99 µM (inactive) | 14.3 µM (inactive) | 0.425 µM (active) | 0.394 µM (active) | 15.3 µM (inactive) |
| CCOC(=O)C1=C(C#N)S(=O)(=O)c2c(oc(C)c2C)N1 | > 100 µM (inactive) | > 100 µM (inactive) | > 100 µM (inactive) | > 100 µM (inactive) | > 100 µM (inactive) | > 100 µM (inactive) | > 100 µM (inactive) | > 100 µM (inactive) | > 100 µM (inactive) | > 100 µM (inactive) | > 100 µM (inactive) | > 100 µM (inactive) | > 100 µM (inactive) | > 100 µM (inactive) | > 100 µM (inactive) | > 100 µM (inactive) | > 100 µM (inactive) | > 100 µM (inactive) | > 100 µM (inactive) | > 100 µM (inactive) |
| CC(C)(Cl)C(Cl)CC/C(CBr)=C(\Cl)CCl (stereo not given) | 19.4 µM (inactive) | 14.9 µM (inactive) | 17.7 µM (inactive) | 11.8 µM (inactive) | 10.4 µM (inactive) | 0.678 µM (active) | 7.01 µM (inactive) | 1.81 µM (inactive) | 4.69 µM (inactive) | 4.48 µM (inactive) | 3.17 µM (inactive) | 4.86 µM (inactive) | 2.92 µM (inactive) | 2.47 µM (inactive) | 2.31 µM (inactive) | 6 µM (inactive) | 3.52 µM (inactive) | 4.45 µM (inactive) | 0.485 µM (active) | 14.1 µM (inactive) |
| COC(=O)CCC(NC(=O)OC(C)(C)C)C(=O)NC(Cc1ccc(NC(=O)CCCC(C)=O)cc1)C(=O)NC(CCC(=O)OC)C(=O)OC (stereo not given) | > 100 µM (inactive) | > 100 µM (inactive) | > 100 µM (inactive) | > 100 µM (inactive) | > 100 µM (inactive) | > 100 µM (inactive) | > 100 µM (inactive) | > 100 µM (inactive) | > 100 µM (inactive) | > 100 µM (inactive) | > 100 µM (inactive) | > 100 µM (inactive) | > 100 µM (inactive) | > 100 µM (inactive) | > 100 µM (inactive) | > 100 µM (inactive) | > 100 µM (inactive) | > 100 µM (inactive) | > 100 µM (inactive) | > 100 µM (inactive) |
| Nc1nnnn1NC(=O)NCCCl | > 10 µM (inactive) | > 10 µM (inactive) | > 10 µM (inactive) | > 10 µM (inactive) | > 10 µM (inactive) | > 10 µM (inactive) | > 10 µM (inactive) | > 10 µM (inactive) | > 10 µM (inactive) | > 10 µM (inactive) | > 10 µM (inactive) | > 10 µM (inactive) | > 10 µM (inactive) | > 10 µM (inactive) | > 10 µM (inactive) | > 10 µM (inactive) | > 10 µM (inactive) | > 10 µM (inactive) | > 10 µM (inactive) | > 10 µM (inactive) |
| CCN(CC)CCC1CCCCN1CC(=O)N1c2ccccc2NC(=O)c2ccccc21 (stereo not given) | > 100 µM (inactive) | > 100 µM (inactive) | > 100 µM (inactive) | > 100 µM (inactive) | > 100 µM (inactive) | > 100 µM (inactive) | > 100 µM (inactive) | > 100 µM (inactive) | > 100 µM (inactive) | > 100 µM (inactive) | > 100 µM (inactive) | > 100 µM (inactive) | > 100 µM (inactive) | > 100 µM (inactive) | > 100 µM (inactive) | > 100 µM (inactive) | > 100 µM (inactive) | 6.11 µM (inactive) | > 100 µM (inactive) | > 100 µM (inactive) |
| [N-]=[N+]=NC1C2CC3C4CC5CC3[C@H](C2)C(C5)C41 (stereo not given in full) | > 100 µM (inactive) | > 100 µM (inactive) | > 100 µM (inactive) | > 100 µM (inactive) | > 100 µM (inactive) | > 100 µM (inactive) | > 100 µM (inactive) | > 100 µM (inactive) | 75.3 µM (inactive) | > 100 µM (inactive) | > 100 µM (inactive) | > 100 µM (inactive) | > 100 µM (inactive) | > 100 µM (inactive) | > 100 µM (inactive) | > 100 µM (inactive) | > 100 µM (inactive) | > 100 µM (inactive) | > 100 µM (inactive) | > 100 µM (inactive) |
